# Active and inactive are the calls of the source. No rule for the calls is given here.
# Tested on: CCRIS mutagenicity, Ames/micronucleus/aberration tests
# Assay: CCRIS mutagenicity studies
# [1] = Test System: AMES SALMONELLA TYPHIMURIUM, Strain/Indicator: TA98, Metabolic Activation: NONE, Method: STANDARD PLATE
# [2] = Test System: AMES SALMONELLA TYPHIMURIUM, Strain/Indicator: TA98, Metabolic Activation: RAT, LIVER, S-9, AROCLOR 1254, Method: STANDARD PLATE
# [3] = Test System: AMES SALMONELLA TYPHIMURIUM, Strain/Indicator: TA100, Metabolic Activation: NONE, Method: STANDARD PLATE
# [4] = Test System: AMES SALMONELLA TYPHIMURIUM, Strain/Indicator: TA100, Metabolic Activation: RAT, LIVER, S-9, AROCLOR 1254, Method: STANDARD PLATE
# [5] = Test System: AMES SALMONELLA TYPHIMURIUM, Strain/Indicator: TA1535, Metabolic Activation: NONE, Method: STANDARD PLATE
# [6] = Test System: AMES SALMONELLA TYPHIMURIUM, Strain/Indicator: TA1537, Metabolic Activation: NONE, Method: STANDARD PLATE
structure (smiles),measurement,setting,value
O=[N+]([O-])c1ccc2c(c1)CCc1cc3c(cc1-2)CCc1ccccc1-3,mutagenic call,"Test System: AMES SALMONELLA TYPHIMURIUM, Strain/Indicator: TA98(1,8-DNP6), Metabolic Activation: NONE",active; positive
same,mutagenic call,"Test System: AMES SALMONELLA TYPHIMURIUM, Strain/Indicator: TA98(1,8-DNP6), Metabolic Activation: RAT, LIVER, S-9, AROCLOR 1254",active; positive
same,mutagenic call,"Test System: AMES SALMONELLA TYPHIMURIUM, Strain/Indicator: TA98(NR), Metabolic Activation: NONE",active; positive
same,mutagenic call,"Test System: AMES SALMONELLA TYPHIMURIUM, Strain/Indicator: TA98(NR), Metabolic Activation: RAT, LIVER, S-9, AROCLOR 1254",active; positive
same,mutagenic call,"Test System: AMES SALMONELLA TYPHIMURIUM, Strain/Indicator: TA98, Metabolic Activation: NONE",active; positive
same,mutagenic call,"Test System: AMES SALMONELLA TYPHIMURIUM, Strain/Indicator: TA98, Metabolic Activation: RAT, LIVER, S-9, AROCLOR 1254",active; positive
same,mutagenic call,"Test System: AMES SALMONELLA TYPHIMURIUM, Strain/Indicator: TA100(NR), Metabolic Activation: NONE",inactive; negative
same,mutagenic call,"Test System: AMES SALMONELLA TYPHIMURIUM, Strain/Indicator: TA100(NR), Metabolic Activation: RAT, LIVER, S-9, AROCLOR 1254",active; positive
same,mutagenic call,"Test System: AMES SALMONELLA TYPHIMURIUM, Strain/Indicator: TA100, Metabolic Activation: NONE",active; positive
same,mutagenic call,"Test System: AMES SALMONELLA TYPHIMURIUM, Strain/Indicator: TA100, Metabolic Activation: RAT, LIVER, S-9, AROCLOR 1254",active; positive
same,mutagenic call,"Test System: AMES SALMONELLA TYPHIMURIUM, Strain/Indicator: TA104, Metabolic Activation: NONE",active; positive
same,mutagenic call,"Test System: AMES SALMONELLA TYPHIMURIUM, Strain/Indicator: TA104, Metabolic Activation: RAT, LIVER, S-9, AROCLOR 1254",active; positive
O=[N+]([O-])c1ccc2cccc3c2c1C=C3,mutagenic call,[1],active; positive
CC(=O)N(O)c1ccccc1C,mutagenic call,[1],inactive; negative
same,mutagenic call,[2],active; positive
same,mutagenic call,[3],inactive; negative
same,mutagenic call,[4],inactive; negative
C1COCO1,mutagenic call,[1],inactive; negative
same,mutagenic call,[2],inactive; negative
same,mutagenic call,[3],inactive; negative
same,mutagenic call,[4],inactive; negative
same,mutagenic call,[5],inactive; negative
same,mutagenic call,"Test System: AMES SALMONELLA TYPHIMURIUM, Strain/Indicator: TA1535, Metabolic Activation: RAT, LIVER, S-9, AROCLOR 1254, Method: STANDARD PLATE",inactive; negative
same,mutagenic call,[6],inactive; negative
same,mutagenic call,"Test System: AMES SALMONELLA TYPHIMURIUM, Strain/Indicator: TA1537, Metabolic Activation: RAT, LIVER, S-9, AROCLOR 1254, Method: STANDARD PLATE",inactive; negative
same,mutagenic call,"Test System: AMES SALMONELLA TYPHIMURIUM, Strain/Indicator: TA1538, Metabolic Activation: NONE, Method: STANDARD PLATE",inactive; negative
same,mutagenic call,"Test System: AMES SALMONELLA TYPHIMURIUM, Strain/Indicator: TA1538, Metabolic Activation: RAT, LIVER, S-9, AROCLOR 1254, Method: STANDARD PLATE",inactive; negative
CCC(=O)N(O)c1ccc(Cl)c(Cl)c1,mutagenic call,"Test System: AMES SALMONELLA TYPHIMURIUM, Strain/Indicator: TA97, Metabolic Activation: NONE, Method: STANDARD PLATE",inactive; negative
same,mutagenic call,"Test System: AMES SALMONELLA TYPHIMURIUM, Strain/Indicator: TA97, Metabolic Activation: RAT, LIVER, S-9, AROCLOR 1254, Method: STANDARD PLATE",inactive; negative
same,mutagenic call,[1],inactive; negative
same,mutagenic call,[2],inactive; negative
same,mutagenic call,[3],inactive; negative
same,mutagenic call,[4],inactive; negative
same,mutagenic call,"Test System: AMES SALMONELLA TYPHIMURIUM, Strain/Indicator: TA104, Metabolic Activation: NONE, Method: STANDARD PLATE",inactive; negative
same,mutagenic call,"Test System: AMES SALMONELLA TYPHIMURIUM, Strain/Indicator: TA104, Metabolic Activation: RAT, LIVER, S-9, AROCLOR 1254, Method: STANDARD PLATE",inactive; negative
CN(C)CCNC(=O)c1cccc2c(N)c3ccccc3nc12,mutagenic call,[6],active; positive
ClCc1ccccc1CCl,mutagenic call,[1],inactive; negative
CN(C)S(=O)(=O)CCNC(=O)N(CCCl)N=O,mutagenic call,[3],active; positive
same,mutagenic call,[4],active; positive
Cc1ccc(C)c(C)c1C,mutagenic call,"Test System: AMES SALMONELLA TYPHIMURIUM, Strain/Indicator: TA97A, Metabolic Activation: NONE, Method: STANDARD PLATE",inactive; negative
same,mutagenic call,"Test System: AMES SALMONELLA TYPHIMURIUM, Strain/Indicator: TA97A, Metabolic Activation: RAT LIVER S-9, AROCLOR 1254, Method: STANDARD PLATE",inactive; negative
same,mutagenic call,[1],inactive; negative
same,mutagenic call,"Test System: AMES SALMONELLA TYPHIMURIUM, Strain/Indicator: TA98, Metabolic Activation: RAT LIVER S-9, AROCLOR 1254, Method: STANDARD PLATE",inactive; negative
same,mutagenic call,[3],inactive; negative
same,mutagenic call,"Test System: AMES SALMONELLA TYPHIMURIUM, Strain/Indicator: TA100, Metabolic Activation: RAT LIVER S-9, AROCLOR 1254, Method: STANDARD PLATE",inactive; negative
same,mutagenic call,"Test System: AMES SALMONELLA TYPHIMURIUM, Strain/Indicator: TA102, Metabolic Activation: NONE, Method: STANDARD PLATE",inactive; negative
same,mutagenic call,"Test System: AMES SALMONELLA TYPHIMURIUM, Strain/Indicator: TA102, Metabolic Activation: RAT LIVER S-9, AROCLOR 1254, Method: STANDARD PLATE",inactive; negative
C[C@]12CCC(=O)C=C1CC[C@@H]1[C@@H]2[C@@H](O)C[C@@]2(C)[C@H]1CC[C@]2(O)C(=O)CO,mutagenic call,"End Point: IN VITRO CHROMOSOMAL ABERRATIONS, Test System: HUMAN PERIPHERAL BLOOD LYMPHOCYTES, Metabolic Activation: NONE",active; positive
same,mutagenic call,"Test System: UDS RAT HEPATOCYTES, Strain/Indicator: THY INCORP (18-20 HR), Metabolic Activation: NONE, Method: LIQUID SCINTILLATION COUNTING",inactive; negative
CC(C)C(=O)N(O)c1ccc(Cl)cc1,mutagenic call,[1],inactive; negative
same,mutagenic call,[2],active; positive
same,mutagenic call,[3],inactive; negative
same,mutagenic call,[4],inactive; negative
O=[N+]([O-])c1cccc2nscc12,mutagenic call,[1],active; positive
same,mutagenic call,"Test System: AMES SALMONELLA TYPHIMURIUM, Strain/Indicator: TA98, Metabolic Activation: S-9, Method: STANDARD PLATE",active; positive
same,mutagenic call,[3],active; positive
same,mutagenic call,"Test System: AMES SALMONELLA TYPHIMURIUM, Strain/Indicator: TA100, Metabolic Activation: S-9, Method: STANDARD PLATE (TEST MATERIAL SOLVENT:DMSO)",active; positive
same,mutagenic call,[5],active; positive
same,mutagenic call,"Test System: AMES SALMONELLA TYPHIMURIUM, Strain/Indicator: TA1535, Metabolic Activation: S-9, Method: STANDARD PLATE",inactive; negative
same,mutagenic call,[6],active; positive
same,mutagenic call,"Test System: AMES SALMONELLA TYPHIMURIUM, Strain/Indicator: TA1537, Metabolic Activation: S-9, Method: STANDARD PLATE",inactive; negative
CN(C)CCNC(=O)c1cccc2oc(-c3ccccc3)nc12,mutagenic call,[6],inactive; negative
